Laboratory results published in PubChem BioAssay AID977614 (Broad Institute, 2014).
The source made the active and inactive calls.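 The calls were made as follows: active = parasite count per well reduced by over 3 SD from the mean, with host cell number above 80% of untreated; inactive = the rest.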

system: L. donovani amastigotes in THP-1 macrophages, DAPI imaging, 72 h; assay: L. donovani intracellular amastigote growth inhibitors, imaging, THP-1 host macrophages, single concentration (AID 977614);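 also: signal is the parasite per host cell ratio from DAPI stained kinetoplasts and nuclei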

| SMILES | AC50 |
| --- | --- |
| C/C=C/c1ccc([C@H]2[C@@H](CNC(=O)NC(C)C)N(C(=O)C3CC3)[C@H]2CO)cc1 | > 10 µM (inactive) |
| CCC(=O)NC[C@@H]1[C@@H](c2ccc(-c3cccc(F)c3)cc2)[C@@H](CO)N1CC1CC1 | > 10 µM (inactive) |
| C[C@@H]1CN([C@H](C)CO)C(=O)CCCn2nncc2CO[C@@H]1CN(C)C(=O)Nc1ccnc(N2CCOCC2)c1 | > 10 µM (inactive) |
| Cc1ccc(S(=O)(=O)N2C[C@@H]3[C@H](c4ccccc42)[C@H](CO)N3Cc2cccnc2)cc1 | > 10 µM (inactive) |
| C[C@H](CO)N1C[C@H](C)[C@H](CN(C)C(=O)c2ccc3ccn(C)c3c2)OCc2cnnn2CCCC1=O | > 10 µM (inactive) |
| C[C@@H]1CN([C@@H](C)CO)C(=O)CCCn2cc(nn2)CO[C@H]1CN(C)S(=O)(=O)c1ccc(-n2cccn2)cc1 | > 10 µM (inactive) |
| Cc1noc(C)c1NC(=O)N(C)C[C@@H]1OCc2cn(nn2)CCCC(=O)N([C@@H](C)CO)C[C@@H]1C | > 10 µM (inactive) |
| COc1ccc(CN(C)C[C@H]2OCc3cnnn3CCCC(=O)N([C@H](C)CO)C[C@H]2C)cc1 | > 10 µM (inactive) |
| CCN(C[C@H]1[C@@H](c2ccccc2)[C@H](CO)N1CC1CC1)C(=O)c1ccccn1 | > 10 µM (inactive) |
| C[C@@H]1CN([C@H](C)CO)C(=O)CCCn2nncc2CO[C@H]1CN(C)C(=O)Nc1ccc(-c2cccs2)cc1 | > 10 µM (inactive) |
| COc1ccccc1CN1[C@H](CO)[C@H]2c3ccccc3N(C(=O)c3cccnc3)C[C@H]21 | > 10 µM (inactive) |
| CCN(C[C@@H]1N[C@@H](CO)[C@@H]1c1ccccc1)C(=O)c1ccncc1 | > 10 µM (inactive) |
| COc1ccc(C(=O)N2C[C@@H]3[C@H](c4ccccc42)[C@H](CO)N3C(=O)NC(C)C)cc1 | > 10 µM (inactive) |
| CC(=O)N1[C@H](CO)[C@H](c2ccccc2)[C@@H]1CN(C(=O)c1ccccc1F)C(C)C | > 10 µM (inactive) |
| C[C@H]1CN([C@@H](C)CO)C(=O)CCCn2cc(nn2)CO[C@@H]1CN(C)S(=O)(=O)c1ccc(-n2cccn2)cc1 | > 10 µM (inactive) |
| C[C@@H]1CN([C@@H](C)CO)C(=O)CCCn2nncc2CO[C@@H]1CN(C)C(=O)NC1CCCC1 | > 10 µM (inactive) |
| O=C(C1CCCCC1)N1[C@H](CO)[C@@H]2c3ccccc3N(S(=O)(=O)c3ccccc3)C[C@@H]21 | > 10 µM (inactive) |
| O=C(CC(F)(F)F)N1C[C@@H]2[C@H](c3ccccc31)[C@H](CO)N2Cc1cccnc1 | > 10 µM (inactive) |
| C[C@@H]1CN([C@H](C)CO)C(=O)CCCn2nncc2CO[C@H]1CN(C)Cc1ccc2cccnc2c1 | > 10 µM (inactive) |

| SMILES | AC50 |
| --- | --- |
| O=C(Nc1ccc(Cl)cc1)N1C[C@@H]2[C@H](c3ccccc31)[C@@H](CO)N2CC1CCCCC1 | > 10 µM (inactive) |
| O=S(=O)(NC[C@@H]1[C@H](c2ccccc2)[C@@H](CO)N1CC1CC1)c1ccccc1 | > 10 µM (inactive) |
| C[C@H](CO)N1C[C@H](C)[C@H](CN(C)C(=O)CCC(F)(F)F)OCc2cnnn2CCCC1=O | > 10 µM (inactive) |
| COc1ccccc1S(=O)(=O)N(C)C[C@@H]1OCc2cn(nn2)CCCC(=O)N([C@H](C)CO)C[C@@H]1C | > 10 µM (inactive) |
| O=S(=O)(NC[C@H]1[C@H](c2ccccc2)[C@@H](CO)N1CC1CC1)c1ccccc1 | > 10 µM (inactive) |
| O=C(Nc1cccc(Cl)c1)N1C[C@@H]2[C@H](c3ccccc31)[C@@H](CO)N2Cc1cccnc1 | > 10 µM (inactive) |
| CCN(C[C@@H]1[C@@H](c2ccc(-c3cccnc3)cc2)[C@H](CO)N1C(C)=O)C(C)=O | > 10 µM (inactive) |
| C[C@H]1CN([C@@H](C)CO)C(=O)CCCn2cc(nn2)CO[C@@H]1CN(C)S(=O)(=O)c1cccc(C#N)c1 | > 10 µM (inactive) |
| Cc1noc(C)c1NC(=O)N(C)C[C@H]1OCc2cn(nn2)CCCC(=O)N([C@H](C)CO)C[C@H]1C | > 10 µM (inactive) |
| CCCNC(=O)N1[C@H](CNC(=O)c2cccc(F)c2)[C@H](c2ccccc2)[C@@H]1CO | > 10 µM (inactive) |
| CCC(=O)NC[C@H]1[C@@H](c2ccc(-c3ccc(F)cc3)cc2)[C@@H](CO)N1C(=O)CC | > 10 µM (inactive) |
| C[C@H](CO)N1C[C@H](C)[C@@H](CN(C)C(=O)Nc2cccc(Oc3ccccn3)c2)OCc2cnnn2CCCC1=O | > 10 µM (inactive) |
| C[C@H](CO)N1C[C@H](C)[C@@H](CN(C)C(=O)Nc2ccccc2C(F)(F)F)OCc2cnnn2CCCC1=O | > 10 µM (inactive) |
| COc1ccc(CN(C)C[C@H]2OCc3cnnn3CCCC(=O)N([C@@H](C)CO)C[C@@H]2C)cc1 | > 10 µM (inactive) |
| C[C@H](CO)N1C[C@H](C)[C@@H](CN(C)C(=O)CCC(F)(F)F)OCc2cn(nn2)CCCC1=O | > 10 µM (inactive) |
| O=C(C1CC1)N1C[C@H]2[C@@H](c3ccccc31)[C@@H](CO)N2C(=O)c1ccccc1 | > 10 µM (inactive) |
| O=C(Cc1ccccc1)N1C[C@@H]2[C@H](c3ccccc31)[C@@H](CO)N2S(=O)(=O)c1ccccc1 | > 10 µM (inactive) |
| CCC(=O)N1C[C@@H]2[C@H](c3ccccc31)[C@H](CO)N2Cc1ccc(F)cc1 | > 10 µM (inactive) |
| O=C(NC[C@H]1[C@H](c2ccccc2)[C@@H](CO)N1Cc1cccnc1)c1ccccn1 | > 10 µM (inactive) |
